Source: patent US20240050522A1, “COMPOSITIONS AND METHODS FOR PREVENTING, ATTENUATING, AND TREATING MEDICAL CONDITIONS WITH sHDL NANOPARTICLES” (The Regents of the University of Michigan, priority 2020, published 2024)

Experiments:
SARS-CoV = conditions: via reduced or relocated ACE-2 receptors; cited from earlier work
endotoxemia rats = conditions: cited from earlier work
[1] = tested on: endotoxemia mice (5 mg/kg LPS); conditions: 100 mg/kg; cited from earlier work
[2] = phospholipid alone, not complexed with 22A; cited from earlier work
[3] = Diameter of 22A-phospholipid sHDL complexes by DLS; format: physicochemical; conditions: volume intensity average
Experimental: The quality of resulting sHDL complexes were analyzed by following analytical techniques. The purity of sHDL complexes were determined by gel permeation chromatography (GPC), with UV detection at 220 nm, using a Tosoh TSK gel G3000SWxl column (Tosoh Bioscience, King of Prussia, PA). The sHDL diameters were determined by dynamic light scattering (DLS), using a Zetasizer Nano ZSP (Malvern Instruments, Westborough, MA) and the volume intensity average values were reported. Transition temperature of sHDL complexes were analyzed by differential scanning calorimetry (DSC) using Nano DSC (TA Instruments, New Castle, DE).

[4] = tested on: NF-κB reporter, human TLR4 (HEK-Blue cells); test: LPS-induced NF-κB expression in HEK-Blue cells (Example X); format: cell-based; conditions: 0.1 mg/ml, LPS 2 ng/ml, 18 h
Experimental: FIG. 29A-I: sHDL complexes inhibit LPS-induced NF-κB activation in a lipid component and concentration dependent. HEK-Blue system was used to analyze neutralization of the LPS-induced inflammatory response. HEK-Blue cells were co-stimulated with 0.01, 0.03, and 0.1 mg/ml sHDL and 2 ng/ml LPS and incubated for 18 h. The activation of NF-κB reporter was quantified by measuring absorption at 650 nm (A-H). sHDL at 0.03 mg/ml were treated in presence of 2 ng/ml LPS and the activation of NF-κB reporter was quantified by measuring absorption at 650 nm (I).
The HEK-Blue cell system (InvivoGen) was used to analyze neutralization of the LPS-induced inflammatory response. HEK-Blue cells stably express reporter-linked human TLR4, CD14, MD2, and a NF-κB and are designed for studying the stimulation of human TLR4. Briefly, HEK-Blue cells were cultured in Dulbecco's Modified Eagle's Medium (DMEM) containing 10% low endotoxin fetal bovine serum (FBS) and selective antibiotics according to the manufacturer's instructions (InvivoGen). Growth medium was discarded and cells were resuspended in HEK-Blue Detection medium. Cells were seeded at 25,000 cells per well. The cells were treated with sHDL at 0.01, 0.03, or 0.1 mg/ml and 2 ng/ml of LPS. […] The blue color was quantified by measuring absorption at 650 nm using a SpectraMax M3 plate reader (Molecular Devices, Sunnyvale, CA).

For methyl-β-cyclodextrin [MβCD], which SARS-CoV cell entry (SARS-CoV) is on record?
The SARS-CoV cell entry was “inhibited”.

Which “plasma TNF-α” value (endotoxemia rats; 10 mg/kg 2 h post-LPS injection (1 mg/kg LPS)) does the source give for apoA-I: apolipoprotein A-I here?
Its value is “reduce”.

What about the survival rate (endotoxemia rats; 10 mg/kg, endotoxemia rats (5 mg/kg)) of the same compound?
The survival rate was “increased”.

What about the mortality [1] of the same compound?
Its mortality is “significantly lowered”.

For `CCCCCCCCCCCCCC(=O)OC[C@H](COP(=O)([O-])OCC[N+](C)(C)C)OC(=O)CCCCCCCCCCCCC` [DMPC, 1,2-dimyristoyl-sn-glycero-3-phosphatidylcholine], which Tm of phospholipid [2] is on record?
The Tm of phospholipid was 24.5 °C.

Which Tm of phospholipid [2] does the source give for `CCCCCCCC/C=C\CCCCCCCC(=O)O[C@H](COC(=O)CCCCCCCCCCCCCCC)COP(=O)([O-])OCC[N+](C)(C)C` [POPC, 1-palmitoyl-2-oleoyl-phosphatidylcholine] here?
The Tm of phospholipid was −3.3±0.5 °C.

With `CCCCCCCCCCCCCCCC(=O)OC[C@H](COP(=O)([O-])OCC[N+](C)(C)C)OC(=O)CCCCCCCCCCCCCCC` [DPPC, 1,2-dipalmitoyl-sn-glycero-3-phosphatidylcholine] as the compound, how does the Tm of phospholipid [2] read?
Its Tm of phospholipid is 41.6 °C.

With `CCCCCCCCCCCCCCCCCC(=O)OC[C@H](COP(=O)([O-])OCC[N+](C)(C)C)OC(=O)CCCCCCCCCCCCCCCCC` [DSPC, 1,2-distearoyl-sn-glycero-3-phosphatidylcholine] as the compound, how does the Tm of phospholipid [2] read?
The Tm of phospholipid was 54.5 °C.

With “PVLDLFRELLNELLEALKQKLK (SEQ ID NO: 4) [22A peptide]” as the compound, how does the “Size (nm)” value [3] read?
The value was 4.49 nm.

And the “Size (nm)” value ([3]; listed as 22A PEPTIDE)?
Its value is 4.488 nm.

And the “activation of NF-kB” value [4]?
The value was “suppressed”.
